Measurements from patent publication EP0515159A1, “Ursane derivatives, their preparation and pharmaceutical formulations thereof” (IDB HOLDING S.p.A., priority 1991, dated 1992).
Where a name gives a salt, the structure may show the parent alone. Read-outs that look alike come from different tables or passages of the source.

Experiments:
[1] = system: alcohol-induced gastric lesions; assay: Alcohol-induced ulcer (gastric lesions) in the rat; assay type: in vivo; details: for inhibition at 6.25 mg/kg: dose 6.25 mg/kg os; for ED50: by mouth, inhibition of alcohol-induced gastric lesions, read-out: ED₅₀ mg/kg and confidence limits (p = 0.95); for ED50 / oral therapeutic indices (LD₅₀/ED₅₀) Alcohol-induced ulcer: rat; for oral therapeutic indices (LD₅₀/ED₅₀) Alcohol-induced ulcer: oral LD50 / ED50 in alcohol-induced ulcer; for R: potency ratio relative to Carbenoxolone (= 1.0), alcohol-induced lesions; for inhibition at 50 mg/kg: dose 50.0 mg/kg os; for inhibition at 100 mg/kg: dose 100.0 mg/kg os; for inhibition at 200 mg/kg: dose 200.0 mg/kg os; for inhibition at 12.5 mg/kg: dose 12.5 mg/kg os
Description: The gastric lesions were induced in male Sprague-Dawley rats weighing 120-140 g, which had been fasted for 48 h, by administering 1 ml/rat of 90% alcohol by mouth. One hour after administration of the damage-inducing agent, the animals were sacrifed in an excess of ether and the stomachs opened along the major curvature; the gastric lesions were measured in mm² and expressed as the percentage of inhibition compared with the controls. The substances under investigation, suspended in 0.5% Methocel, were administered by mouth 1 hour before the alcohol.

[2] = system: Diclofenac-induced gastric ulcers; assay: Diclofenac-induced ulcer (gastric lesions) in the rat; assay type: in vivo; details: for ED50: by mouth, inhibition of Diclofenac-induced gastric lesions, read-out: ED₅₀ and confidence limits (p = 0.95); for ED50 / oral therapeutic indices (LD₅₀/ED₅₀) Diclofenac-induced ulcer: rat; for % Inhibition: 1 h before 100 mg/kg Diclofenac, sacrifice 5 h after; for oral therapeutic indices (LD₅₀/ED₅₀) Diclofenac-induced ulcer: oral LD50 / ED50 in Diclofenac-induced ulcer; for R: potency ratio relative to Carbenoxolone (= 1.0), Diclofenac-induced ulcers
Description: Female Sprague-Dawley rats weighing 180-200 g that had been fasted for 24 h were used in this experiment. The gastric lesions were induced by a single oral dose of 100 mg/kg Diclofenac.
The animals were sacrificed 5 h after administration of the damage-inducing agent. The gastric lesions were measured in mm² and expressed as a percentage of inhibition.
The substances under investigation, suspended in 0.5% Methocel, were administered by mouth 1 h before the anti-inflammatory agent.

[3] = Antidiuretic activity: effects on urinary excretion in the rat; assay type: in vivo; details: for Electrolyte output, mEq/6h/rat K^+ / Electrolyte output, mEq/6h/rat Na^+ / Na^+/K^+ / Urine volume (0-6 h): urine collected 6 hours after fifth dose
Description: The effect of compounds IIa and IIb (M=Na) on urinary excretion was investigated in male Sprague-Dawley rats weighing 180-200 g. […] Carbenoxolone in a dose of 200 mg/kg was used as a reference substance. The animals were fasted for 18 h before the last dose. The urine was collected for 6 hours after administration of the fifth dose and its content of Na⁺ and K⁺ was measured.

[4] = Acute toxicity in the rat; details: in vivo; for LD50 at 336 h: 14 days observation; for LD50 at 14 days: both sexes, Sprague-Dawley
Description: The acute toxicity of compounds IIa and IIb (M=Na) was evaluated in the rat after oral and intraperitoneal administration.
Each experimental group comprised 5 male and 5 female Sprague-Dawley rats. After being treated, the animals were kept under observation for 14 days and the dose that caused the death of 50% of the animals (LD₅₀) was calculated by the probit method (Finney D J. in "Probit Analysis", Cambridge University Press, 3rd Ed., Cambridge, 1971). The results shown in Table 4 indicate that, after intraperitoneal administration, the toxicity of both compounds is similar to that of the reference product.

[5] = Rattus norvegicus, 1 hour before 90% alcohol, lesions in mm² vs controls
[6] = 20 mg/kg os once a day for 5 days
[7] = ip, intraperitoneal, probit method, read-out: LD50 (confidence limits p = 0.95) mg/kg i.p
[8] = oral, 1000 mg/kg (LD10) = maximum dose that could be administered (2 doses of 500 mg/kg 1 h apart), read-out: LD50 (confidence limits p = 0.95) mg/kg p.o
[9] = 200 mg/kg os once a day for 5 days

`C[C@H]1[C@H](C)CC[C@]2(COC(=O)c3ccccc3C(=O)O)CC[C@]3(C)C(=CC[C@@H]4[C@@]5(C)CC[C@H](OC(=O)c6ccccc6C(=O)O)C(C)(C)[C@@H]5CC[C@]43C)[C@H]12` [IIa (M = Na), disodium salt of the dihemiphthalate or urs-12-ene-3β,28-diol] gave an inhibition at 2 mg/kg ([1]; Rattus norvegicus, dose 2.0 mg/kg os, 1 hour before 90% alcohol, lesions in mm² vs controls) of 16.1%, an inhibition at 2.5 mg/kg ([1]; Rattus norvegicus, dose 2.5 mg/kg os, 1 hour before 90% alcohol, lesions in mm² vs controls) of 22.1% and an inhibition at 3.125 mg/kg ([1]; Rattus norvegicus, dose 3.125 mg/kg os, 1 hour before 90% alcohol, lesions in mm² vs controls) of 65.2%. For the same compound, the inhibition at 6.25 mg/kg [1, 5] was 67.4%, the ED50 [1] was 3.7 mg/kg and the “oral therapeutic indices (LD₅₀/ED₅₀) Alcohol-induced ulcer” value [1] was over 270. The R [1] was 25.6, the ED50 [2] was 7 mg/kg and the “% Inhibition” value ([2]; dose 3.125 mg/kg os) was 8.9%. For the same compound, the “% Inhibition” value ([2]; dose 6.25 mg/kg os) was 28.3%, the “% Inhibition” value ([2]; dose 7.5 mg/kg os) was 62.3% and the “% Inhibition” value ([2]; dose 9.0 mg/kg os) was 67.9%. For the same compound, the “oral therapeutic indices (LD₅₀/ED₅₀) Diclofenac-induced ulcer” value [2] was over 143, the R [2] was 16.3 and the “Electrolyte output, mEq/6h/rat K^+” value [3, 6] was 0.14±0.01 mEq/6h/rat. For the same compound, the “Electrolyte output, mEq/6h/rat Na^+” value [3, 6] was 0.21±0.01 mEq/6h/rat, the “Na^+/K^+” value [3, 6] was 1.5 and the “Urine volume (0-6 h)” value [3, 6] was 3.0 ± 0.2 mL. It also gave an LD50 at 336 h [4, 7] of 60 mg/kg and an LD50 at 336 h [4, 8] of over 1000 mg/kg.
`CC1(C)[C@@H](OC(=O)CCC(=O)O)CC[C@]2(C)[C@H]3C(=O)C=C4[C@@H]5C[C@@](C)(C(=O)O)CC[C@]5(C)CC[C@@]4(C)[C@]3(C)CC[C@@H]12` [Carbenoxolone, sodium salt of the hemisuccinate of β-glycyrrhetic acid] showed an inhibition at 50 mg/kg [1, 5] of 34.9%, an inhibition at 100 mg/kg [1, 5] of 45% and an inhibition at 200 mg/kg [1, 5] of 83%. The ED50 [1] was 90.4 mg/kg, the “oral therapeutic indices (LD₅₀/ED₅₀) Alcohol-induced ulcer” value [1] was 34 and the R [1] was 1.0. For the same compound, the ED50 [2] was 140 mg/kg, the “% Inhibition” value ([2]; dose 100.0 mg/kg os) was 37.2% and the “% Inhibition” value ([2]; dose 150.0 mg/kg os) was 45.6%. For the same compound, the “% Inhibition” value ([2]; dose 200.0 mg/kg os) was 72.7%, the “% Inhibition” value ([2]; dose 400.0 mg/kg os) was 90.9% and the “oral therapeutic indices (LD₅₀/ED₅₀) Diclofenac-induced ulcer” value [2] was 22. The R [2] was 1.0, the “Electrolyte output, mEq/6h/rat K^+” value [3, 9] was 0.12±0.01 mEq/6h/rat and the “Electrolyte output, mEq/6h/rat Na^+” value [3, 9] was 0.10±0.01 mEq/6h/rat. For the same compound, the “Na^+/K^+” value [3, 9] was 0.8, the “Urine volume (0-6 h)” value [3, 9] was 1.5 ± 0.2 mL and the “Na^+/K^+” value ([3]; 200 mg/kg os once a day for 5 days, listed as carbenoxolone) was 0.5. For the same compound, the reducing diuresis ([3]; 200 mg/kg, versus controls) was 67%, the “reduction in the excretion of Na⁺” value ([3]; 200 mg/kg, versus controls) was 72% and the LD50 at 14 days ([4]; ip) was 92 mg/kg. The LD50 at 14 days ([4]; po) was 3100 mg/kg.
`CC1(C)[C@@H](OC(=O)c2ccccc2C(=O)O)CC[C@]2(C)[C@H]3CC=C4[C@@H]5C[C@@](C)(COC(=O)c6ccccc6C(=O)O)CC[C@]5(C)CC[C@@]4(C)[C@]3(C)CC[C@@H]12` [18β-olean-12-ene-3β,3-0-diol di-0-hemiphthalate] gave an inhibition at 0.8 mg/kg ([1]; Rattus norvegicus, dose 0.8 mg/kg os, 1 hour before 90% alcohol, lesions in mm² vs controls) of 12%, an inhibition at 3.12 mg/kg ([1]; Rattus norvegicus, dose 3.12 mg/kg os, 1 hour before 90% alcohol, lesions in mm² vs controls) of 32% and an inhibition at 12.5 mg/kg [1, 5] of 40.8%. The inhibition at 50 mg/kg [1, 5] was 70.2%, the ED50 [1] was 14.6 mg/kg and the R [1] was 5.6. For the same compound, the ED50 [2] was 38.9 mg/kg, the “% Inhibition” value ([2]; dose 3.125 mg/kg os) was 1.5% and the “% Inhibition” value ([2]; dose 6.25 mg/kg os) was 5.9%. For the same compound, the “% Inhibition” value ([2]; dose 12.5 mg/kg os) was 21.5%, the “% Inhibition” value ([2]; dose 25.0 mg/kg os) was 29.8% and the R [2] was 3.5.
For `C[C@H]1[C@H](C)CC[C@]2(COC(=O)c3ccccc3C(=O)O)CC[C@]3(C)C(=CC=C4[C@@]5(C)CC[C@H](OC(=O)c6ccccc6C(=O)O)C(C)(C)[C@@H]5CC[C@]43C)[C@H]12` [IIb (M = Na), disodium salt of the dihemiphthalate of ursa-9(11),12-diene-3β,28-diol], the inhibition at 6.25 mg/kg [1, 5] was 10.7%, the inhibition at 12.5 mg/kg [1, 5] was 32.5% and the inhibition at 16 mg/kg ([1]; Rattus norvegicus, dose 16.0 mg/kg os, 1 hour before 90% alcohol, lesions in mm² vs controls) was 38.2%. The inhibition at 25 mg/kg ([1]; Rattus norvegicus, dose 25.0 mg/kg os, 1 hour before 90% alcohol, lesions in mm² vs controls) was 76.6%, the ED50 [1] was 16.8 mg/kg and the “oral therapeutic indices (LD₅₀/ED₅₀) Alcohol-induced ulcer” value [1] was over 60. For the same compound, the R [1] was 5.5, the ED50 [2] was 6.4 mg/kg and the “% Inhibition” value ([2]; dose 3.125 mg/kg os) was 37.4%. The “% Inhibition” value ([2]; dose 6.25 mg/kg os) was 43.3%, the “% Inhibition” value ([2]; dose 12.5 mg/kg os) was 72.0% and the “% Inhibition” value ([2]; dose 25.0 mg/kg os) was 73.3%. For the same compound, the “oral therapeutic indices (LD₅₀/ED₅₀) Diclofenac-induced ulcer” value [2] was over 156, the R [2] was 17.8 and the “Electrolyte output, mEq/6h/rat K^+” value [3, 6] was 0.13±0.02 mEq/6h/rat. The “Electrolyte output, mEq/6h/rat Na^+” value [3, 6] was 0.19±0.02 mEq/6h/rat, the “Na^+/K^+” value [3, 6] was 1.5 and the “Urine volume (0-6 h)” value [3, 6] was 2.8 ± 0.3 mL. It also gave an LD50 at 336 h [4, 7] of 75 mg/kg and an LD50 at 336 h [4, 8] of over 1000 mg/kg.
In the case of `C[C@H]1[C@H](C)CC[C@]2(C(=O)O)CC[C@]3(C)C(=CC=C4[C@@]5(C)CC[C@H](OC(=O)CCC(=O)O)C(C)(C)[C@@H]5CC[C@]43C)[C@H]12` [3β-(carboxy-propionyloxy)-ursa-9(11),12-dien-28-oic acid], the inhibition at 50 mg/kg [1, 5] is reported as 28.4%, the inhibition at 100 mg/kg [1, 5] is reported as 45.6% and the inhibition at 200 mg/kg [1, 5] is reported as 76.3%. The inhibition at 400 mg/kg ([1]; Rattus norvegicus, dose 400.0 mg/kg os, 1 hour before 90% alcohol, lesions in mm² vs controls) was 80.1%, the ED50 [1] was 106 mg/kg and the R [1] was 0.8.
